Values quoted from earlier work as cited in patent US11414692B2, “Method and device for characterizing the inhibitory capacity of a molecule on a microorganism” (BIOMERIEUX, priority 2014, dated 2022).
Values after ≈ are worked out from the molar mass of the structure shown.

Test system: E. coli ATCC 25922
Conditions: manual technique, incubation time 18 to 24 h

Compound | MIC concentration recognized by the French government, or "regulatory" MIC [µg/mL]
gentamicin | 0.5
CCn1cc(C(=O)O)c(=O)c2ccc(C)nc21 [nalidixic acid] | 2 (≈ 8.61 µM)
O=C(N[C@H](CO)[C@H](O)c1ccc([N+](=O)[O-])cc1)C(Cl)Cl [chloramphenicol] | 4 (≈ 12.4 µM)
